Data set [1] in a line: Tissue distribution in mice after oral gavage. Format: in vivo, mouse. The method, then: Pharmacokinetics studies were performed by XenoGesis. TST3 was administrated orally in C57BL/6J males. Plasma samples were prepared by protein precipitation with methanol containing internal standards. Tissues were weighed and prepared by homogenisation (1:3 in phosphate buffered saline) and protein precipitated with methanol containing internal standard. Following the addition of methanol, plasma and tissue samples were placed at −20° C. for 1 hour (or overnight) to allow proteins to precipitate. The samples were then centrifuged at 2,500×g (3,400 rpm) for 20 minutes at 4° C. The supernatants were analysed by LC-MS/MS.

Data set [2] relates to HD-N171-82Q mice. The experiment in a line: Huntington's disease mouse model, motor performance (rotarod). Format: in vivo. To be noted: 2 mg/kg orally daily for 4 weeks. On the procedure: To assess the efficacy of a compound of Example 1 in ameliorating a disease phenotype, 28-day old transgenic mice or littermate control were orally administered daily with a compound of Example 1 (2 mg/kg) or vehicle for a duration of 4 weeks. Disease progression was evaluated by weighting the mice during the treatment and by assessing their motor performances after 4 weeks of treatment.
Eight weeks old HD-N171-82Q mice and their wild-type littermates were first habituated for 1 min on a static rotor and 1 min at constant speed (4 rpm). Habituation was repeated. The test session consisted of four trials with 15 min intervals in between. For each trial 5 mice were placed on an accelerating rotor (4 to 40 rpm) and the latency to fall was recorded, with a maximum limit for individual animal set at 300 s.
To produce an experimental group HD-N171-82Q transgenic males were crossed with C3H/B6 F1 wild type females. 4 weeks old transgenic males and their wild type littermate male controls were randomized in different groups and treated with TST3 for 4 weeks.
TST3 treatment of HD-N171-82Q transgenic males and their wild type littermate male controls started at 4 weeks of age and was continued for 4 weeks before the test. […] In each trial mice were allowed to run on an accelerating rod from 4 to 40 rpm for up to 300 seconds and the latency to fall was counted. […]

Data set [3] has as its target T1, PPP1R15A-PP1 complex (Homo sapiens, UniProt O75807).
T1 construct: the cDNAs encoding amino acids 325-636 of PPP1R15A; made in house; host or cells: R15A fragment: E. coli BL21-Gold; BAP-PP1γ: Sf9 insect cells (baculovirus)
Put plainly: SPR steady-state binding to R15A-PP1c holophosphatase on streptavidin chip. On the procedure: The streptavidin coated surface was activated by 1 min injection with a solution of 50 mM NaOH and 1 M NaCl. Biotin-PP1 was diluted in the running buffer (50 mM Tris pH 7.5, 100 mM NaCl, 0.1 mM EGTA, 1 mM MnCl2, 0.05% Tween 20) and injected at approximately 300 nM concentration directly to streptavidin coated surface for 100 sec or to reach immobilization level of biotin-PP1 corresponding to ˜7000 RU. A blank immobilization was performed for one of the SA sensor chip surface to use as a reference.
With minor deviations, the same procedure and conditions were used in all binding experiments. Small molecules were stored as 50 mM stock solutions in 100% DMSO. Prior to determining binding constants, serial dilutions of either 12 or 8 concentrations of the compounds were prepared in the running buffer in a 96-well plate. […] Then, without regenerating the surface, the compound dilution series was injected onto the surface of the chip Sensorgrams were analyzed using the Biacore T200 evaluation software and the binding constants determined based on a steady-state model. Kinetic experiments are carried out using different concentrations of the compound and their respective equilibrium binding levels determined.
Surface Plasmon Resonance (SPR) was used to measure the binding affinity of compounds to the PPP1R15A/B-PP1 phosphatase complex. Biotin acceptor peptide (BAP) was fused to the N-terminus of PP1γ, which enables the biotinylation of the BAP-tagged protein in Sf9 insect cells. After purification the BAP-PP1γ protein was captured on a streptavidin sensor chip (SA-chip, GE healthcare) to a response level of ˜5.000 RU. Using controlled biotinylation enables orientated and uniform immobilization on the sensor chip surface. The PP1γ was then used to capture PPP1R15A/B and form a holophosphatase complex on the surface of the streptavidin chip. This complex can then be used to test binding of compounds. 10 μM PPP1R15A/B protein concentration was used to form the holophosphatase complex during a 80 s injection. […] After the concentration series (8 or 12 concentrations) is completed the surface is regenerated with 3 M NaCl and we can capture R15A/B again to form a fresh holophosphatase complex to measure a binding of another compound concentration series. Analysing the level of equilibrium binding as a function of concentration gives interaction affinities or steady-state binding affinity (KD).
The streptavidin coated surface was activated by 1 minute injection with a solution of 50 mM NaOH and 1 M NaCl three times at a flow rate of 10 μl/min. bio-GBZ or bio-PP1c was diluted in the running buffer (50 mM Tris pH 7.5, 100 mM NaCl, 0.1 mM EGTA, 0.05% Tween 20, 0.1% DMSO) and injected at approximately 300 nM concentration at a flow rate of 10 μl/min directly to streptavidin coated surface to reach immobilization level of bio-GBZ or bio-PP1c corresponding to ˜200 and 6000 RU, respectively. A blank immobilization was performed for one of the SA sensor chip surface to use as a reference.
With minor deviations, the same procedure and conditions were used in all binding experiments. Small molecules were stored as 50 mM stock solutions in 100% DMSO. Prior to determining binding constants, serial dilutions of either 12 or 8 concentrations of the compounds were prepared in the running buffer in a 96-well plate. […] This was followed by 1 minute stabilization period, to wash off any unspecific binding. […]

Entries after “also recorded” stand apart in the source; their conditions may differ.

T1 sequence (O75807 325-636): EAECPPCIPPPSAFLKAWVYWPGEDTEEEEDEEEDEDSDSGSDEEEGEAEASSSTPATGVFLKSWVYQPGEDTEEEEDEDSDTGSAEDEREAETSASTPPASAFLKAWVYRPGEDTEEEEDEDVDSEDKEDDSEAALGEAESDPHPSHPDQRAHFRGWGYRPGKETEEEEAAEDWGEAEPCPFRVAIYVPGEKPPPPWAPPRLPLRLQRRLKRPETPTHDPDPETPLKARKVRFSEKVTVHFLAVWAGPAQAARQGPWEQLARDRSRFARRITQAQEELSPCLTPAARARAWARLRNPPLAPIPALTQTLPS
T1 sequence (P36873 whole entry partner, the tested form may be a part): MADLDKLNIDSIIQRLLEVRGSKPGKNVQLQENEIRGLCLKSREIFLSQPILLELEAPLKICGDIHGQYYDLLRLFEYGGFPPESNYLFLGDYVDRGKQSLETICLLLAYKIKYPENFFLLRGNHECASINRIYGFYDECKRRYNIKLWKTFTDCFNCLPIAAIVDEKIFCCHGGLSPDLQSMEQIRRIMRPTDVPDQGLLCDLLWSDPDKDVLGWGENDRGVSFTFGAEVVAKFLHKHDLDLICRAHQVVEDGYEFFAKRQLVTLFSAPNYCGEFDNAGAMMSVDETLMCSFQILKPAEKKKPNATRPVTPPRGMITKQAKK

For the compound `[H]/N=C(\N)NN=Cc1cccc(Cl)c1Cl` [Example 1, (E)-2-(2,3-dichlorobenzylidene)hydrazine-1-carboximidamide], the “tissue distribution (plasma, brain, spinal cord, pancreas, liver)” value in data set [1] is “good tissue distribution; also recorded: extensive tissue distribution”. Moreover, the “motor performance / disease prevention in Huntington's disease mice” value in data set [2] is “ameliorates Huntington's disease; also recorded: prevented the motor performances impairment; also recorded: preventing disease”.

For `N=C(N)N/N=C/c1c(Cl)cccc1Cl` [Guanabenz, reference compound], in data set [3], the “binding to R15A-PP1c (in words)” value was “strongly bound”. Moreover, the affinity in data set [3] (steady-state affinity, listed as GBZ), expressed as Kd, was 122 nM.
